Test results from publication PMC9977398, “Next-generation membrane-active glycopeptide antibiotics that also inhibit bacterial cell division” (Chemical Science, 2023).
Converted amounts (≈) assume the structure as drawn. Where two headings read alike, the source gives them in different places.

Columns and labels:
MRSA = experiment: Cytoplasmic membrane depolarization assay, DiSC3(5); type: cell-based, S. aureus; conditions: for time to membrane depolarisation post-treatment: exponentially growing MRSA, 10 μM; for time to dissipation of membrane potential post-treatment: stationary phase cells of MRSA, 20 μM
Source text: The membrane disruption properties of both VanQbiph (4) and VanQAmC10 (8) were studied to correlate the extent of membrane perturbation and bactericidal activity against both exponentially growing and non-growing bacterial cells. Their ability to depolarize the membrane was monitored using the fluorescent probe DiSC3(5) (3,3′-dipropylthiadicarbocyanine iodide). DiSC3(5) is sensitive to the membrane potential and as it accumulates in the membrane, the fluorescence intensity decreases due to self-quenching. Upon dissipation of membrane potential, an increase in fluorescence is observed due to DiSC3(5) being dispersed in the solution. Against B. subtilis and MRSA, both the compounds VanQbiph (4) and VanQAmC10 (8) depolarised the membrane within 2 minutes post-treatment at 10 μM (Fig. 2A and B). The depolarization occurred in a concentration-dependent manner (Fig. S2A ^†). […] Against stationary phase cells of MRSA also, rapid dissipation of membrane potential was observed within 2 minutes post-treatment with both VanQbiph (4) and VanQAmC10 (8) (Fig. 2C). […]
For assessing depolarisation against stationary phase cells of MRSA ATCC 33591, cells were grown to the stationary phase for 16 h. The culture was then diluted to an OD600 of 0.2 and the depolarisation assays was performed as described. The experiments were performed three times independently in duplicates and the graph is representative of the results from all experiments.
Cytoplasmic membrane depolarization assay5
Mid log phase MRSA were harvested (3500 rpm, 5 min), washed in 5 mM glucose and 5 mM HEPES buffer (pH 7.2) in 1:1 ratio and resuspended in 5 mM HEPES buffer, 5 mM glucose and 100 mM KCl solution in 1:1:1 ratio. Then 2 μM of 3, 3′-Dipropylthiadicarbocyanine iodide (DiSC3(5)) was added to bacterial suspension and pre-incubated for 45 min. The fluorescence was monitored at excitation wavelength of 622 nm and emission wavelength of 670 nm. Then 20 μL of test compound and vancomycin were added to black well plates containing bacterial suspension and DiSC3(5) after 2-4 min of fluorescence measurement. As a measure of membrane depolarization fluorescence was monitor for another 35 min. For assessing membrane […] against stationary phase cells of MRSA ATCC 33591, cells were grown to the stationary phase for 16 h. The culture was then diluted to an OD600 of 0.2 and the depolarisation assays was performed as described. The images are representative of results from three independent experiments done in triplicates […]
Glass cover slips 24 h post -treatment with the test compounds at the mentioned con centrations, […]

AB R674 (A. baumannii) = experiment: MIC determination, micro-dilution broth; type: cell-based
Description: (§1) The increase in the carbon content of substituted moieties from six (1) to seven (2 and 3) to ten (5) to twelve (4), increased activity. […]
(§2) Test compound was assayed in a micro -dilution broth format as per the CLSI guideline. The bacterial freeze dried stock samples were stored at -80 °C. About 5 μL of these stocks were added to 3 mL of the respective broth and the culture was grown for 6 h at 37°C with prior to the experiments. This 6 h grown culture was diluted to give effective cell concentration of 10 5 CFU/mL which was then used for determining MIC. Compounds were serially diluted 2 -fold, in sterile millipore water and 50 μL of these serial dilutions were added to the wells of 96 well plate followed by the addition of about 150 μL of bacterial solution. The plates were then incubated for 18-24 h at 37 °C. The O.D. value at 600 nm was recorded using TECAN (Infinite series, M200 pro) Plate Reade r. Each concentration had triplicate values and the whole experiment was done at least twice and the MIC value was determined by taking the average of triplicate O. D. values for each concentration and plotting it against concentration. The data was then subjected to sigmoidal fitting. From the curve the MIC value was determined, as the point where the O. D. was similar to that of control having no bacteria.

[1] = tested on: PA R590 (MDR strain of P. aeruginosa); experiment: MIC determination, micro-dilution broth; type: cell-based
Description: as §1, §2

B. subtilis 168 [2] = experiment: Determination of MIC against B. subtilis; type: cell-based; conditions: read-out: MIC against B. subtilis
Description: Determination of MIC against B. subtilis
Overnight cultures of B. subtilis 168 were grown in 50 mL flasks in 5 mL BMM media. The bacteria in the mid-log phase were then incubated with compounds for 18 h at 37 ̊C in BMM media. The MIC was determined as the lowest concentration at which no visible bacterial OD […]
(§3) Overnight bacterial cultures were inoculated in BMM and allowed to grow to an OD 500 of 0.35. 200 µL of the bacterial culture were incubated with compounds at 37 ̊C for 15 minutes. […]
(§4) BAC Light assay or pore formation assay
(§5) 0.35. 500 µL of the bacteria was then incubated with the compounds at their respective PECSs for 10 mins in the same media at 37 ̊C. The compound was then centrifuged at 13200 rpm and […]

B. subtilis 168 [3] = experiment: Acute growth retardation / physiologically effective concentration; type: cell-based; conditions: exponentially growing B. subtilis
Source text: The mechanisms of action in Gram-positive bacteria were further examined in the model bacterium B. subtilis. The study of the mechanism of action of a drug requires live cells under antibiotic stress. A 30–50% growth inhibition upon treatment, triggers a stress response in the bacterial cell while allowing cell proliferation to progress at a level sufficient to study the effect of the compound. The lowest concentration at which this effect was observed, was termed the physiologically effective concentration (PEC). […] The acute effect of different antibiotic concentrations on exponentially growing bacterial cultures were tested to identify the PEC (Fig. 3B–D). […] The presence of cationic lipophilic moieties possibly result in higher accumulation in the membrane region leading to growth inhibition at lower concentrations. […]
Determination of Physiologically Effective Concentration7
Overnight cultures of B. subtilis 168 were grown in 50 mL flasks with 10 mL of media. Upon growing to mid-log phase (an OD500 between 0.5 and 1), bacteria was inoculated in 100mL BMM in a 500 ml flask. When the cultures reach an OD500 of 0.35, the bacteria is aliquoted into separate conicals (50 mL) with 5 ml and compounds are added. The O.D. of the solutions are recorded every 30 minutes. The concentration which retards the growth of bacteria was selected as the PEC. The experiments were performed two times independently and the images are representative of results from two independent experiments. The experiment was done together with the compound published in (J. Med. Chem. 64, 2021, 10185) and therefore the graph for vancomycin is the same. […]
as §3, §4, §5

planktonic cells = experiment: Viability of planktonic cells post-treatment in HEPES-glucose; type: cell-based
Description: To confirm that membrane perturbation contributed to cell death, the bacterial viability was evaluated under conditions similar to the mechanistic studies. […] The number of viable cells was lower upon treatment with VanQAmC10 (8) than when treated with VanQbiph (4) at the same concentration. […] The stronger membrane–perturbation properties of VanQAmC10 (8) therefore contribute to higher activity against both exponentially growing and stationary phase bacteria.

[4] = Acinetobacter baumannii, read-out: Minimum inhibitory concentration, AB R674
[5] = Pseudomonas aeruginosa, read-out: Minimum inhibitory concentration, PA R590

SMILES | time to membrane depolarisation post-treatment (MRSA) [min] | time to dissipation of membrane potential post-treatment (MRSA) [min] | MIC (AB R674 (A. baumannii); [4]) [µM] | MIC [1, 5] [µM] | MIC (B. subtilis 168 [2]; Bacillus subtilis, 168, 18 h) [µM] | concentration showing growth retardation (inhibitory effect from) (B. subtilis 168 [3]) [µM] | reduction in viable cells (planktonic cells; 5 μM) [log CFU mL^−1] | reduction in viable cells (planktonic cells; 10 μM) [log CFU mL^−1] | effect on membrane potential (MRSA) | effect on viable cells (planktonic cells; 40 μM) | MIC (AB R674 (A. baumannii); Acinetobacter baumannii; read-out: Minimum inhibitory concentration, AB R674) [µM] | MIC ([1]; Pseudomonas aeruginosa; read-out: Minimum inhibitory concentration, PA R590) [µM] | MIC (B. subtilis 168 [2]; Bacillus subtilis, 168, BMM media, 18 h) [µM]
CCCCCCCCCCNC(=O)C[N+](C)(C)CCCNC(=O)C1NC(=O)C2NC(=O)C(NC(=O)C3NC(=O)C(CC(N)=O)NC(=O)C(NC(=O)C(CC(C)C)NC)C(O)c4ccc(c(Cl)c4)Oc4cc3cc(c4OC3OC(CO)C(O)C(O)C3OC3CC(C)(N)C(O)C(C)O3)Oc3ccc(cc3Cl)C2O)c2ccc(O)c(c2)-c2c(O)cc(O)cc21 (stereo not shown) [VanQAmC10 (8)] | ≤ 2 | ≤ 2 | 10 | 3.1 | 0.25 | 0.125 | 2 | 4 | – | – | – | – | –
CN[C@H](CC(C)C)C(=O)N[C@H]1C(=O)N[C@@H](CC(N)=O)C(=O)N[C@H]2C(=O)N[C@H]3C(=O)N[C@H](C(=O)N[C@H](C(=O)O)c4cc(O)cc(O)c4-c4cc3ccc4O)[C@H](O)c3ccc(c(Cl)c3)Oc3cc2cc(c3O[C@@H]2O[C@H](CO)[C@@H](O)[C@H](O)[C@H]2O[C@H]2C[C@](C)(N)[C@H](O)[C@H](C)O2)Oc2ccc(cc2Cl)[C@H]1O [Vancomycin, reference compound] | – | – | 100 (≈ 145 µg/mL) | 100 (≈ 145 µg/mL) | 0.2 (≈ 0.29 µg/mL) | 0.4 | – | – | did not affect the membrane potential | did not reduce the viability of bacteria | – | – | –
CNC(CC(C)C)C(=O)NC1C(=O)NC(CC(N)=O)C(=O)NC2C(=O)NC3C(=O)NC(C(=O)NC(C(=O)NCCC[N+](C)(C)Cc4ccc(-c5ccccc5)cc4)c4cc(O)cc(O)c4-c4cc3ccc4O)C(O)c3ccc(c(Cl)c3)Oc3cc2cc(c3OC2OC(CO)C(O)C(O)C2OC2CC(C)(N)C(O)C(C)O2)Oc2ccc(cc2Cl)C1O (stereo not shown) [VanQbiph (4)] | ≤ 2 | ≤ 2 | – | – | – | 0.2 | 0.8 | 2.2 | – | – | 24.5 | > 30 | 0.15
